According to patent US10221173B2, “Chemical compounds” (AstraZeneca AB, priority 2017, dated 2019):
Converted amounts (≈) assume the structure as drawn.

How the values were obtained:
[1] = Thermodynamic solubility (shake-flask); format: physicochemical; settings: aqueous phosphate buffer, 25 °C, pH 7.4, aqueous buffer, thermodynamic from solid, phosphate buffer pH 7.4, 24 hours
[2] = target: recombinant human Estrogen Receptor alpha ligand binding domain (ER alpha-LBD (GST)) (Homo sapiens (Human), UniProt P03372); test: ERα binding assay (LanthaScreen TR-FRET competition)
[3] = target: Estrogen Receptor (ERα) in MCF-7 cells (Homo sapiens (Human), UniProt P03372); test: MCF-7 ER down-regulation assay (immuno-fluorescence); format: cell-based
[4] = Log D (shake flask, 1-octanol/aqueous buffer); format: physicochemical; settings: 1-octanol/aqueous buffer, pH 7.4, pH 7.4
[5] = Human plasma protein binding (equilibrium dialysis); format: in vitro ADME

Chain of Estrogen Receptor (ERα) in MCF-7 cells (P03372 whole entry): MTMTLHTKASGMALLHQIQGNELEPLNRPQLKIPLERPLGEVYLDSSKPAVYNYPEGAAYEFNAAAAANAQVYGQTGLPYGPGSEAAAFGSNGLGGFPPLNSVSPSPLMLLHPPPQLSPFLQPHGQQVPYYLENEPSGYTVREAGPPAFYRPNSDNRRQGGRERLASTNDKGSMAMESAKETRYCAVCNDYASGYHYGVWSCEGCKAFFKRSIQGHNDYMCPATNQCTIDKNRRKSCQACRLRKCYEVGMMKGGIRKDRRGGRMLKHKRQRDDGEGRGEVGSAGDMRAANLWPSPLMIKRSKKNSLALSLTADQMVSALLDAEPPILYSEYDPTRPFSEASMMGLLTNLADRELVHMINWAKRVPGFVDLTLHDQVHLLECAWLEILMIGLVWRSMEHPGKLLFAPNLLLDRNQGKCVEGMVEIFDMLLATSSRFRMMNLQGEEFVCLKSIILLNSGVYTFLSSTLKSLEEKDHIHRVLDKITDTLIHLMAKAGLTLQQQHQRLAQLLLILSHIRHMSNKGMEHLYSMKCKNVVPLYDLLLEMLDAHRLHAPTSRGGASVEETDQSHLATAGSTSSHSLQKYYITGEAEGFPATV
Chain of recombinant human Estrogen Receptor alpha ligand binding domain (ER alpha-LBD (GST)) (P03372 307-554): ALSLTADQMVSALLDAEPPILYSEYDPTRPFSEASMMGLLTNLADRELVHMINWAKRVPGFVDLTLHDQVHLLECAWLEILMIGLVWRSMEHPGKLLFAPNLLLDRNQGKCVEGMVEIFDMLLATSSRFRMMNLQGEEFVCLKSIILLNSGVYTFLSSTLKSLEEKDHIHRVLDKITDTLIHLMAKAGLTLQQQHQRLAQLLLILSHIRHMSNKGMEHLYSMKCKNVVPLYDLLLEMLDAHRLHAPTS

Compound | solubility at 24 h [1] | Human plasma protein binding (% free) [5] | IC50 [2] | IC50 [3] | logD [4]
COc1c(OCCNCCCF)cccc1[C@@H]1c2[nH]c3ccccc3c2C[C@@H](C)N1CC1(F)COC1 [Example 5, 3-fluoro-N-(2-(3-((1R,3R)-2-((3-fluorooxetan-3-yl)methyl)-3-methyl-2,3,4,9-tetrahydro-1H-pyrido[3,4-b]indol-1-yl)-2-methoxyphenoxy)ethyl)propan-1-amine] | 357 µM (≈ 178 µg/mL) | – | 45 nM | 25 nM | –
C[C@@H]1Cc2c([nH]c3ccccc23)[C@@H](c2cccc(NCCNCCCF)c2)N1CC1(F)COC1 [Example 2, N-1-(3-((1R,3R)-2-((3-fluorooxetan-3-yl)methyl)-3-methyl-2,3,4,9-tetrahydro-1H-pyrido[3,4-b]indol-1-yl)phenyl)-N-2-(3-fluoropropyl)ethane-1,2-diamine] | 895 µM (≈ 419 µg/mL) | – | – | – | –
C[C@@H]1Cc2c([nH]c3ccccc23)[C@@H](c2c(F)ccc(OCCNCCCF)c2Cl)N1CC(C)(C)C(=O)O [Example 131, 3-((1R,3R)-1-(2-chloro-6-fluoro-3-(2-((3-fluoropropyl)amino)ethoxy)phenyl)-3-methyl-1,3,4,9-tetrahydro-2H-pyrido[3,4-b]indol-2-yl)-2,2-dimethylpropanoic acid] | > 1000 µM | 32 % free | – | – | 1.2
Cc1cc(OCCNCCCF)cc([C@@H]2c3[nH]c4ccccc4c3C[C@@H](C)N2CC(F)(F)F)c1 [Example 18, 3-fluoro-N-(2-(3-methyl-5-((1R,3R)-3-methyl-2-(2,2,2-trifluoroethyl)-2,3,4,9-tetrahydro-1H-pyrido[3,4-b]indol-1-yl)phenoxy)ethyl)propan-1-amine] | 27 µM (≈ 12.9 µg/mL) | – | – | – | –
Cc1c(OCCNCCC(F)F)ccc(F)c1[C@@H]1c2[nH]c3ccc(F)cc3c2C[C@@H](C)N1C[C@@H](C)C(=O)O [Example 162, (R)-3-((1R,3R)-1-(3-(2-((3,3-difluoropropyl)amino)ethoxy)-6-fluoro-2-methylphenyl)-6-fluoro-3-methyl-1,3,4,9-tetrahydro-2H-pyrido[3,4-b]indol-2-yl)-2-methylpropanoic acid] | > 1000 µM | 27 % free | – | – | 1.8
Cc1c(N(C)CCN(C)CCCF)ccc(F)c1[C@@H]1c2[nH]c3ccccc3c2C[C@@H](C)N1C[C@H](C)C(=O)O [Example 147, (S)-3-((1R,3R)-1-(6-fluoro-3-((2-((3-fluoropropyl)(methyl)amino)ethyl)(methyl)amino)-2-methylphenyl)-3-methyl-1,3,4,9-tetrahydro-2H-pyrido[3,4-b]indol-2-yl)-2-methylpropanoic acid] | – | 19 % free | 51 nM | – | –
C[C@@H]1Cc2c([nH]c3ccc(F)cc23)[C@@H](c2c(F)ccc(OCCNCCCF)c2F)N1C[C@H](C)C(=O)O [Example 59, (S)-3-((1R,3R)-1-(2,6-difluoro-3-(2-((3-fluoropropyl)amino)ethoxy)phenyl)-6-fluoro-3-methyl-1,3,4,9-tetrahydro-2H-pyrido[3,4-b]indol-2-yl)-2-methylpropanoic acid] | – | – | 2.3 nM | 3.1 nM | –
C[C@@H]1Cc2c([nH]c3ccccc23)[C@@H](c2cc(OCCNCCCF)ncn2)N1CC(F)(F)F [Example 113, 3-fluoro-N-(2-((6-((1S,3R)-3-methyl-2-(2,2,2-trifluoroethyl)-2,3,4,9-tetrahydro-1H-pyrido[3,4-b]indol-1-yl)pyrimidin-4-yl)oxy)ethyl)propan-1-amine] | < 1.6 µM | – | 17 nM | > 300 nM | 4.1
C[C@@H]1Cc2c([nH]c3ccccc23)[C@@H](c2cc(F)cc(OCCNCCCF)c2)N1CC(F)(F)F [Example 73, 3-fluoro-N-(2-(3-fluoro-5-((1R,3R)-3-methyl-2-(2,2,2-trifluoroethyl)-2,3,4,9-tetrahydro-1H-pyrido[3,4-b]indol-1-yl)phenoxy)ethyl)propan-1-amine] | 7 µM (≈ 3.37 µg/mL) | – | – | – | –
C[C@@H](CN1[C@H](c2c(F)ccc(OCCNCCCF)c2Cl)c2[nH]c3ccccc3c2C[C@H]1C(F)F)C(=O)O [Example 138, (S)-3-((1R,3S)-1-(2-chloro-6-fluoro-3-(2-((3-fluoropropyl)amino)ethoxy)phenyl)-3-(difluoromethyl)-1,3,4,9-tetrahydro-2H-pyrido[3,4-b]indol-2-yl)-2-methylpropanoic acid] | – | – | 1.6 nM | 1.6 nM | –
Cc1c(OCCNCCCF)ccc(F)c1[C@@H]1c2[nH]c3ccccc3c2C[C@@H](C)N1CC(C)(C)C(=O)O [Example 119, 3-((1R,3R)-1-(6-fluoro-3-(2-((3-fluoropropyl)amino)ethoxy)-2-methylphenyl)-3-methyl-1,3,4,9-tetrahydro-2H-pyrido[3,4-b]indol-2-yl)-2,2-dimethyl-propanoic acid] | – | – | 6.9 nM | 1 nM | –
Cc1c(OCCN(C)CCCF)ncc(F)c1[C@@H]1c2[nH]c3ccc(F)cc3c2C[C@@H](C)N1C[C@@H](C)C(=O)O [Example 155, (2R)-3-[(1R,3R)-6-fluoro-1-[5-fluoro-2-[2-[3-fluoropropyl(methyl)amino]ethoxy]-3-methyl-4-pyridyl]-3-methyl-1,3,4,9-tetrahydropyrido[3,4-b]indol-2-yl]-2-methyl-propanoic acid] | – | – | 1 nM | 0.21 nM | –
C[C@@H](CN1[C@H](c2c(F)cnc(OCCNCCCF)c2Cl)c2[nH]c3ccccc3c2C[C@H]1C(F)F)C(=O)O [Example 139, (S)-3-((1R,3S)-1-(3-chloro-5-fluoro-2-(2-((3-fluoropropyl)amino)ethoxy)pyridin-4-yl)-3-(difluoromethyl)-1,3,4,9-tetrahydro-2H-pyrido[3,4-b]indol-2-yl)-2-methylpropanoic acid] | – | – | 1.5 nM | 0.9 nM | –
C[C@@H]1Cc2c([nH]c3ccccc23)[C@@H](c2cccc(N(C)CCNCCCF)c2)N1CC1(F)COC1 [Example 3, N-1-(3-((1R,3R)-2-((3-fluorooxetan-3-yl)methyl)-3-methyl-2,3,4,9-tetrahydro-1H-pyrido[3,4-b]indol-1-yl)phenyl)-N-2-(3-fluoropropyl)-N-1-methylethane-1,2-diamine] | 712 µM (≈ 344 µg/mL) | – | – | – | –
COc1ccc(OC[C@H](C)NCCCF)cc1[C@@H]1c2[nH]c3ccccc3c2C[C@@H](C)N1CC(F)(F)CO [Example 49, 2,2-difluoro-3-((1R,3R)-1-(5-((S)-2-((3-fluoropropyl)amino)propoxy)-2-methoxyphenyl)-3-methyl-1,3,4,9-tetrahydro-2H-pyrido[3,4-b]indol-2-yl)propan-1-ol] | 335 µM (≈ 174 µg/mL) | – | 1.2 nM | 0.15 nM | 2.8

More lines, main results first:

solubility at 24 h [1] | Human plasma protein binding (% free) [5] | Compound | IC50 [2] | IC50 [3] | logD [4]
0.9 µM (≈ 0.433 µg/mL) | – | C[C@@H]1Cc2c([nH]c3ccccc23)[C@@H](c2ccc(F)c(OCCNCCCF)c2)N1CC(F)(F)F [Example 74, 3-fluoro-N-(2-(2-fluoro-5-((1R,3R)-3-methyl-2-(2,2,2-trifluoroethyl)-2,3,4,9-tetrahydro-1H-pyrido[3,4-b]indol-1-yl)phenoxy)ethyl)propan-1-amine] | – | – | –
8 µM (≈ 3.96 µg/mL) | – | Cc1c(OCCNCCCF)ccc(F)c1[C@@H]1c2[nH]c3ccccc3c2C[C@@H](C)N1CC(F)(F)F [Example 33, 3-fluoro-N-(2-(4-fluoro-2-methyl-3-((1R,3R)-3-methyl-2-(2,2,2-trifluoroethyl)-2,3,4,9-tetrahydro-1H-pyrido[3,4-b]indol-1-yl)phenoxy)ethyl)propan-1-amine] | – | – | –
– | 0.91 % free | Cc1c(OCCNCCCF)cncc1[C@@H]1c2[nH]c3ccccc3c2C[C@@H](C)N1CC(F)(F)F [Example 38, 3-fluoro-N-(2-((4-methyl-5-((1R,3R)-3-methyl-2-(2,2,2-trifluoroethyl)-2,3,4,9-tetrahydro-1H-pyrido[3,4-b]indol-1-yl)pyridin-3-yl)oxy)ethyl)propan-1-amine] | – | 0.19 nM | –
13 µM (≈ 6.44 µg/mL) | – | Cc1ccc(OCCNCCCF)c(F)c1[C@@H]1c2[nH]c3ccccc3c2C[C@@H](C)N1CC(F)(F)F [Example 80, 3-fluoro-N-(2-(2-fluoro-4-methyl-3-((1R,3R)-3-methyl-2-(2,2,2-trifluoroethyl)-2,3,4,9-tetrahydro-1H-pyrido[3,4-b]indol-1-yl)phenoxy)ethyl)propan-1-amine] | – | – | –
68 µM (≈ 32.5 µg/mL) | – | Cc1ccc(OCCNCCCF)cc1[C@@H]1c2[nH]c3ccccc3c2C[C@@H](C)N1CC(F)(F)F [Example 17, 3-fluoro-N-(2-(4-methyl-3-((1R,3R)-3-methyl-2-(2,2,2-trifluoroethyl)-2,3,4,9-tetrahydro-1H-pyrido[3,4-b]indol-1-yl)phenoxy)ethyl)propan-1-amine] | – | – | –
227 µM (≈ 115 µg/mL) | – | Cc1c(OCCNCCCF)ccc(F)c1[C@@H]1c2[nH]c3ccccc3c2C[C@@H](C)N1CC(F)(F)CO [Example 45, 2,2-difluoro-3-((1R,3R)-1-(6-fluoro-3-(2-((3-fluoropropyl)amino)ethoxy)-2-methylphenyl)-3-methyl-1,3,4,9-tetrahydro-2H-pyrido[3,4-b]indol-2-yl)propan-1-ol] | – | – | –
88 µM (≈ 42.4 µg/mL) | – | C[C@@H]1Cc2c([nH]c3ccccc23)[C@@H](c2cccc(OCCNCCCF)c2F)N1CC(F)(F)F [Example 24, 3-fluoro-N-(2-(2-fluoro-3-((1R,3R)-3-methyl-2-(2,2,2-trifluoroethyl)-2,3,4,9-tetrahydro-1H-pyrido[3,4-b]indol-1-yl)phenoxy)ethyl)propan-1-amine] | – | – | –
5 µM (≈ 2.39 µg/mL) | – | Cc1ccc([C@@H]2c3[nH]c4ccccc4c3C[C@@H](C)N2CC(F)(F)F)cc1OCCNCCCF [Example 19, 3-fluoro-N-(2-(2-methyl-5-((1R,3R)-3-methyl-2-(2,2,2-trifluoroethyl)-2,3,4,9-tetrahydro-1H-pyrido[3,4-b]indol-1-yl)phenoxy)ethyl)propan-1-amine] | – | – | –
> 1000 µM | – | Cc1c(OCCNCCCF)ccc(F)c1[C@@H]1c2[nH]c3ccccc3c2C[C@@H](C)N1CCC(=O)O [Example 116, 3-((1R,3R)-1-(6-fluoro-3-(2-((3-fluoropropyl)amino)ethoxy)-2-methylphenyl)-3-methyl-1,3,4,9-tetrahydro-2H-pyrido[3,4-b]indol-2-yl)propanoic acid] | – | – | –
